Source: US4620005A, “1-isopropyl-4[(4-tetrahydro-1-naphthoyloxy phenyl)(alkylene)-carbonyl(oxymethlcarbonyl)]piperazines having chymotrypsin-inhibitory activity” (Kowa Co., Ltd., priority 1983, dated 1986)
Structures can show the parent of a compound that is named as a salt.

Target: chymotrypsin (Bos taurus, UniProt P00766)
Test: chymotrypsin inhibitory effect (procedure of Muramatsu et al; acetyl-L-tyrosine ethyl ester substrate, Hestrin colour development)
Format: biochemical
Settings: 10 min preincubation; 25 mM acetyl-L-tyrosine ethyl ester; 0.1M Tris-HCl pH 8.0; 37° C., 30 min; absorbance 530 nm; read-out: Inhibitory Activity [50% Inhibitory Concentration (M)]
Procedure: Some selected compounds of this invention were tested with respect to their chymotrypsin inhibitory effects.
The tests were conducted in accordance with the procedure of Muramatsu et al [The Journal of Biochemistry, 62, 408 (1967)]. A mixture was prepared which was made up of 0.1 ml of a dimethylsulfoxide solution of each test compound, 0.1 ml of water and 0.1 ml of a buffer solution containing 10 μg/ml of chymotrypsin (0.1M Tris-HCl buffer, pH 8.0). The mixture was incubated for 10 minutes, followed by addition of 0.2 ml of a buffer solution containing 25 mM of an ethyl ester of acetyl-L-tyrosine. The resulting mixture was reacted at 37° C. for 30 minutes. The remaining substrate was caused to develop a color by the Hesterin method, whereupon its absorbance was measured at 530 nm. As a comparative compound, use was made of tosylphenylalanine chloromethyl ketone (TPCK) which is known as an inhibitor for chymotrypsin.
The results are shown in Table 1 in which the numbers of the test compounds are indicated as those of the corresponding examples given hereunder.

| SMILES | IC50 [M] |
| --- | --- |
| CN1CCN(C(=O)C=Cc2ccc(OC(=O)C3CCCc4ccccc43)cc2)CC1 (centres unmarked) [Example 4] | 6e-07 |
| CC(C)N1CCN(C(=O)COC(=O)c2ccc(OC(=O)C3CCCc4ccccc43)cc2)CC1 (centres unmarked) [Example 5] | 3e-08 |

Further lines, results first:

| IC50 [M] | SMILES |
| --- | --- |
| 3e-06 | CC(C)N1CCN(C(=O)C=Cc2ccc(OC(=O)C3CCCc4ccccc43)cc2)CC1 (centres unmarked) [Example 2] |
| 7e-07 | CC(C)N1CCN(CCNC(=O)c2ccc(OC(=O)C3CCCc4ccccc43)cc2)CC1 (centres unmarked) [Example 3] |
| 4e-06 | CC(C)N1CCN(CC(=O)Nc2ccc(OC(=O)C3CCCc4ccccc43)cc2)CC1 (centres unmarked) [Example 1, 1-Isopropyl-4-[{4-(1,2,3,4-tetrahydro-1-naphthoyloxy)-phenyl}carbamoylmethyl]piperazine.dihydrochloride] |
